Tested on: leukopenia caused by 5-FU
Test: hemopoietic effect in animal experimentation: leukopenia caused by 5-FU in rats, blood cell counts
Type: in vivo
[1] = male rats, 5-FU 100 mg/kg orally twice on 8th day, blood after 14 days, mean ± SEM
[2] = rats, 5-FU model, values of Table 1
[3] = rats, p<0.01 vs control (5-FU), p<0.05 vs trial 1

With `O=c1[nH]cc(F)c(=O)[nH]1` [Trial 5-FU, 5-fluorouracil] the “GrC. (granulocyte)” value [1] was 0.66 ± 0.11 × 10^3/μl, the “LymC. (lymphocyte)” value [1] was 2.21 ± 0.15 × 10^3/μl and the “MonoC. (monocyte)” value [1] was 0.84 ± 0.12 × 10^3/μl. For the same molecule, the Platelet [1] was 983.5 ± 52.0 × 10^3/μl, the “RBC (red blood cell)” value [1] was 9.58 ± 0.14 × 10^6/μl and the “WBC (white blood cell)” value [1] was 3.70 ± 0.23 × 10^3/μl. For the same molecule, the granulocyte (mean) [2] was 0.66 ± 0.11 10^3/µL, the lymphocyte (mean) [2] was 2.21 ± 0.15 10^3/µL and the monocyte (mean) [2] was 0.84 ± 0.12 10^3/µL. The white blood cells (mean) [2] was 3.7 ± 0.23 10^3/µL, the “effect on granulocytes (in words)” value (rats, p<0.01 vs control (5-FU) or vs trial 1) was “inhibited” and the “effect on lymphocytes (in words)” value [3] was “inhibited”. The “effect on monocytes (in words)” value [3] was “inhibited” and the “effect on white blood cells (in words)” value (rats, unpaired student t test, p<0.01 vs control (5-FU) or vs trial 1) was “inhibited”.

— patent publication US6372261B1, “Process for producing Guilu ErXiangao” (Pharmaceutical Industry Technology and Development Center, priority 2000, dated 2002)
